Measured values published in patent publication US4599352A, “Antineoplastic platinum (IV) complexes and compositions” (priority 1984, dated 1986).

How the values were obtained:
IP L1210 leukemia = assay: Mouse optimal (highest tolerated) dose, IP L1210 leukemia, Days 1, 5 and 9 schedule (Table 7); format: in vivo
From the text: *IP L1210 leukemia, Days 1, 5 and 9 schedule. Highest tolerated dose in a
least 2 of 3 experiments (i.e,. animal weight difference (testcontrol)

IP L1210 = assay: Activity against IP-implanted L1210 leukemia sensitive to cisplatin, 30 day test (Table 3); format: in vivo, Female CD2Fl mice
Method: (§1) Biological properties of the compounds of the present invention were determined following the protocol described in Cancer Chemotherapy Reports, Vol. 3, No. 3, 1972 which report is incorporated herein by reference.
(§2) Other known mechanisms of resistance for other classes of agents, such as gene amplification or target enzyme change or amplication, also need to be explored. The experiments summarized in Table 3 were conducted at the same time against both sublines using the same drug preparations. […] These experiments were repeated in a second laboratory as documented in Table 4. However, in these experiments the animals were held for 60 rather than 30 days to evaluate whether or not long-term survivors are produced after drug treatment in a more challenging setting.
This experiment (A8-00005 3LE31) was conducted at the Southern Research Institute, Birmingham, Ala. under the supervision of Dr. Daniel Griswold. The protocols were the same as those published previously (Geran et al., Cancer Chemotherapy Reports 3: No. 2, 1972 [Attachment 11]). 10^5 cells were implanted intraperitoneally in CD2Fl male mice on Day 0. Drug treatments were given intraperitoneally as single injections at the doses indicated on Days 1, 5 and 9 after tumor implantation. The diluent was saline except for NSC-271674 where 5% sodium bicarbonate was used. All drugs were prepared fresh on the day of injection, and all were administered in solution. Median survival times for both control and drug-treated mice were determined and expressed as a percentage (% T/C). Body weights were determined on Day 5 and expressed as a weight difference (body weight of the drug-treated animals minus that of the control animals in grams) (T-C). The diluent control animals lived a median of 8.4 days and gained 1.9 grams by Day 5 in this experiment. All animals, including Day 30 survivors, were used in the calculation of median survival times. The log10 change in tumor burden refers to the net log change in viable tumor cell population at the end of therapy (Rx) as compared to the start of therapy; e.g., a […] means that there was a […] and a 3 log change means there was a 1000-fold increase in tumor burden at the end of therapy. The tumor burden at the start of therapy was about 6.1×10^5 cells in this experiment.
These experiments (A8-00008 3LE31 and A8-00001 3DP31) were conducted concurrently at the Southern Research Institute, Birmingham, Ala. under the supervision of Dr. Daniel Griswold. See Table 4 for experimental details. The diluent control animals bearing L1210 leukemia lived a median of 8.6 days and gained 1.3 grams by Day 5. […] Female CD2Fl mice were used for these experiments.

IP L1210/Cisplatin [1] = assay: Activity against IP-implanted L1210/Cisplatin leukemia resistant to cisplatin, 30 day test (Table 3); format: in vivo, Female CD2Fl mice
Method: as §1, §2
This experiment (A8-00005 3LE31) was conducted at the Southern Research Institute, Birmingham, Ala. under the supervision of Dr. Daniel Griswold. The protocols were the same as those published previously (Geran et al., Cancer Chemotherapy Reports 3: No. 2, 1972 [Attachment 11]). 10^5 cells were implanted intraperitoneally in CD2Fl male mice on Day 0. Drug treatments were given intraperitoneally as single injections at the doses indicated on Days 1, 5 and 9 after tumor implantation. The diluent was saline except for NSC-271674 where 5% sodium bicarbonate was used. All drugs were prepared fresh on the day of injection, and all were administered in solution. Median survival times for both control and drug-treated mice were determined and expressed as a percentage (% T/C). Body weights were determined on Day 5 and expressed as a weight difference (body weight of the drug-treated animals minus that of the control animals in grams) (T-C). The diluent control animals lived a median of 8.4 days and gained 1.9 grams by Day 5 in this experiment. All animals, including Day 30 survivors, were used in the calculation of median survival times. The log10 change in tumor burden refers to the net log change in viable tumor cell population at the end of therapy (Rx) as compared to the start of therapy; e.g., a […] means that there was a […] and a 3 log change means there was a 1000-fold increase in tumor burden at the end of therapy. The tumor burden at the start of therapy was about 6.1×10^5 cells in this experiment. […]

IP L1210/Cisplatin [2] = assay: Activity against IP-implanted L1210/Cisplatin leukemia resistant to cisplatin, 60 day test (Table 4); format: in vivo, Female CD2Fl mice
Method: as §1
as §2, with “setting. […]” for “setting.”
These experiments (23-00081 3LE31 and 23-00003 3DP3l) were conducted concurrently at the Mason Research Institute, Worcester, MA under the supervision of Dr. William Cobb. See Table 4 for experimental details. The diluent control animals bearing L1210 leukemia lived a median of 8.3 days and gained 1.6 grams by Day 5. […] Female CD2Fl mice were used for these experiments.

Structure (SMILES): N.N.[Cl][Pt][Cl] [Cisplatin, cis-diamminedichloroplatinum (II), reference compound]
- Mouse Optimal Dose (highest tolerated dose in at least 2 of 3 experiments) (IP L1210 leukemia): 10 mg/kg
- 30 Day Survivors/Total (IP L1210; 1.25 mg/kg/dose): 0/6
- Approx. Log10 Change in Tumor Burden at End of RX (IP L1210; 1.25 mg/kg/dose): ~3.0 log10
- Median % T/C (IP L1210; 1.25 mg/kg/dose): 116%
- 30 Day Survivors/Total (IP L1210; 5 mg/kg/dose): 0/6
- Approx. Log10 Change in Tumor Burden at End of RX (IP L1210; 5 mg/kg/dose): ~2.2 log10
- Median % T/C (IP L1210; 5 mg/kg/dose): 162%
- 30 Day Survivors/Total (IP L1210; 10 mg/kg/dose): 3/6
- Approx. Log10 Change in Tumor Burden at End of RX (IP L1210; 10 mg/kg/dose): ~-5.9 log10
- Median % T/C (IP L1210; 10 mg/kg/dose): 348%
- 30 Day Survivors/Total (IP L1210; 20 mg/kg/dose): 0/6
- Approx. Log10 Change in Tumor Burden at End of RX (IP L1210; 20 mg/kg/dose): ~2.4 log10
- Median % T/C (IP L1210; 20 mg/kg/dose): 148%
- 30 Day Survivors/Total (IP L1210/Cisplatin [1]; 1.25 mg/kg/dose): 0/6
- Approx. Log10 Change in Tumor Burden at End of RX (IP L1210/Cisplatin [1]; 1.25 mg/kg/dose): ~3.0 log10
- Median % T/C (IP L1210/Cisplatin [1]; 1.25 mg/kg/dose): 104%
- 30 Day Survivors/Total (IP L1210/Cisplatin [1]; 5 mg/kg/dose): 0/6
- Approx. Log10 Change in Tumor Burden at End of RX (IP L1210/Cisplatin [1]; 5 mg/kg/dose): ~3.1 log10
- Median % T/C (IP L1210/Cisplatin [1]; 5 mg/kg/dose): 101%
- 30 Day Survivors/Total (IP L1210/Cisplatin [1]; 10 mg/kg/dose): 0/6
- Approx. Log10 Change in Tumor Burden at End of RX (IP L1210/Cisplatin [1]; 10 mg/kg/dose): ~2.9 log10
- Median % T/C (IP L1210/Cisplatin [1]; 10 mg/kg/dose): 108%
- 30 Day Survivors/Total (IP L1210/Cisplatin [1]; 20 mg/kg/dose): 0/6
- Median % T/C (IP L1210/Cisplatin [1]; 20 mg/kg/dose): 86%
- Activity against L1210/cisplatin (IP L1210/Cisplatin [1]; mouse, in vivo): refractory
- 60 Day Survivors/Total (IP L1210/Cisplatin [2]; 1.25 mg/kg/dose): 0/10
- Body Weight Difference (IP L1210/Cisplatin [2]; 1.25 mg/kg/dose): -0.1 Grams
- Median % T/C (IP L1210/Cisplatin [2]; 1.25 mg/kg/dose): 103%
- 60 Day Survivors/Total (IP L1210/Cisplatin [2]; 5 mg/kg/dose): 0/10
- Body Weight Difference (IP L1210/Cisplatin [2]; 5 mg/kg/dose): -2.3 Grams
- Median % T/C (IP L1210/Cisplatin [2]; 5 mg/kg/dose): 110%
- 60 Day Survivors/Total (IP L1210/Cisplatin [2]; 10 mg/kg/dose): 0/10
- Body Weight Difference (IP L1210/Cisplatin [2]; 10 mg/kg/dose): -5.1 Grams
- Median % T/C (IP L1210/Cisplatin [2]; 10 mg/kg/dose): 87%
- 60 Day Survivors/Total (IP L1210/Cisplatin [2]; 20 mg/kg/dose): 0/10
- Body Weight Difference (IP L1210/Cisplatin [2]; 20 mg/kg/dose): -5.6 Grams
- Median % T/C (IP L1210/Cisplatin [2]; 20 mg/kg/dose): Toxic
- Activity against L1210/cisplatin (IP L1210/Cisplatin [2]; mouse, in vivo): lack of activity

Structure (SMILES): N[C@@H]1CCCC[C@H]1N.O=C([O-])c1ccc(C(=O)[O-])c(C(=O)[O-])c1.[H+].[Pt+2] [Carboxyphthalato Platinum, carboxyphthalatocyclohexanediamine platinum (II), reference compound]
- Mouse Optimal Dose (highest tolerated dose in at least 2 of 3 experiments) (IP L1210 leukemia): 12.5 mg/kg
- 30 Day Survivors/Total (IP L1210; 3.13 mg/kg/dose): 1/6
- Approx. Log10 Change in Tumor Burden at End of RX (IP L1210; 3.13 mg/kg/dose): ~1.4 log10
- Median % T/C (IP L1210; 3.13 mg/kg/dose): 174%
- 30 Day Survivors/Total (IP L1210; 6.25 mg/kg/dose): 5/6
- Approx. Log10 Change in Tumor Burden at End of RX (IP L1210; 6.25 mg/kg/dose): ~-5.9 log10
- Median % T/C (IP L1210; 6.25 mg/kg/dose): 348%
- 30 Day Survivors/Total (IP L1210; 12.5 mg/kg/dose): 6/6
- Approx. Log10 Change in Tumor Burden at End of RX (IP L1210; 12.5 mg/kg/dose): ~-5.9 log10
- Median % T/C (IP L1210; 12.5 mg/kg/dose): 348%
- 30 Day Survivors/Total (IP L1210; 25 mg/kg/dose): 0/6
- Median % T/C (IP L1210; 25 mg/kg/dose): 73%
- 30 Day Survivors/Total (IP L1210; 50 mg/kg/dose): 0/6
- Median % T/C (IP L1210; 50 mg/kg/dose): 50%
- 30 Day Survivors/Total (IP L1210/Cisplatin [1]; 3.13 mg/kg/dose): 2/6
- Approx. Log10 Change in Tumor Burden at End of RX (IP L1210/Cisplatin [1]; 3.13 mg/kg/dose): ~2.4 log10
- Median % T/C (IP L1210/Cisplatin [1]; 3.13 mg/kg/dose): 139%
- 30 Day Survivors/Total (IP L1210/Cisplatin [1]; 6.25 mg/kg/dose): 4/6
- Approx. Log10 Change in Tumor Burden at End of RX (IP L1210/Cisplatin [1]; 6.25 mg/kg/dose): ~-5.9 log10
- Median % T/C (IP L1210/Cisplatin [1]; 6.25 mg/kg/dose): 322%
- 30 Day Survivors/Total (IP L1210/Cisplatin [1]; 12.5 mg/kg/dose): 4/6
- Approx. Log10 Change in Tumor Burden at End of RX (IP L1210/Cisplatin [1]; 12.5 mg/kg/dose): ~-5.9 log10
- Median % T/C (IP L1210/Cisplatin [1]; 12.5 mg/kg/dose): 322%
- 30 Day Survivors/Total (IP L1210/Cisplatin [1]; 25 mg/kg/dose): 2/6
- Approx. Log10 Change in Tumor Burden at End of RX (IP L1210/Cisplatin [1]; 25 mg/kg/dose): ~-5.9 log10
- Median % T/C (IP L1210/Cisplatin [1]; 25 mg/kg/dose): 304%
- 30 Day Survivors/Total (IP L1210/Cisplatin [1]; 50 mg/kg/dose): 1/6
- Median % T/C (IP L1210/Cisplatin [1]; 50 mg/kg/dose): 129%
- Reduction in tumor burden over the course of therapy (IP L1210/Cisplatin [1]; L1210/Cisplatin): at least -5.9 logs
- 30-day survivors (IP L1210/Cisplatin [1]; tolerated doses): three or more 30-day survivors
- 60 Day Survivors/Total (IP L1210/Cisplatin [2]; 3.13 mg/kg/dose): 6/10
- Body Weight Difference (IP L1210/Cisplatin [2]; 3.13 mg/kg/dose): -1.2 Grams
- Median % T/C (IP L1210/Cisplatin [2]; 3.13 mg/kg/dose): 645%
- 60 Day Survivors/Total (IP L1210/Cisplatin [2]; 6.25 mg/kg/dose): 2/10
- Body Weight Difference (IP L1210/Cisplatin [2]; 6.25 mg/kg/dose): -2.9 Grams
- Median % T/C (IP L1210/Cisplatin [2]; 6.25 mg/kg/dose): 236%
- 60 Day Survivors/Total (IP L1210/Cisplatin [2]; 12.5 mg/kg/dose): 0/10
- Body Weight Difference (IP L1210/Cisplatin [2]; 12.5 mg/kg/dose): -5.5 Grams
- Median % T/C (IP L1210/Cisplatin [2]; 12.5 mg/kg/dose): Toxic
- 60 Day Survivors/Total (IP L1210/Cisplatin [2]; 25 mg/kg/dose): 0/10
- Body Weight Difference (IP L1210/Cisplatin [2]; 25 mg/kg/dose): -3.7 Grams
- Median % T/C (IP L1210/Cisplatin [2]; 25 mg/kg/dose): Toxic
- 60 Day Survivors/Total (IP L1210/Cisplatin [2]; 50 mg/kg/dose): 0/10
- Median % T/C (IP L1210/Cisplatin [2]; 50 mg/kg/dose): Toxic
